In ChEMBL document CHEMBL1201862, “PubChem BioAssay data set” (2004):
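All cell lines were grown in 96-well plates and treated with compound for 48 hours. Here, GI50 denotes the concentration required for 50% inhibition of growth.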 Calls of active or inactive are those of the source. No stated cut-off is given here; in the data, active = GI50 up to about 1.1 µM and inactive = higher.

What was measured:
Assay in all cases: NCI-60 cell line screen, 48 h
[1] = tested on: A549
[2] = tested on: ACHN
[3] = tested on: CAKI-1
[4] = tested on: COLO 205
[5] = tested on: HCT-15
[6] = tested on: Hs-578T
[7] = tested on: IGROV-1
[8] = tested on: K562
[9] = tested on: LOX IMVI
[10] = tested on: NCI-H522
[11] = tested on: NCI/ADR-RES
[12] = tested on: OVCAR-3
[13] = tested on: OVCAR-4
[14] = tested on: PC-3
[15] = tested on: SF-295
[16] = tested on: SK-MEL-28
[17] = tested on: SN12C
[18] = tested on: SNB-75
[19] = tested on: UACC-62
[20] = tested on: SK-MEL-5

| Compound | GI50 [1] | GI50 [2] | GI50 [3] | GI50 [4] | GI50 [5] | GI50 [6] | GI50 [7] | GI50 [8] | GI50 [9] | GI50 [10] | GI50 [11] | GI50 [12] | GI50 [13] | GI50 [14] | GI50 [15] | GI50 [16] | GI50 [17] | GI50 [18] | GI50 [19] | GI50 [20] |
| --- | --- | --- | --- | --- | --- | --- | --- | --- | --- | --- | --- | --- | --- | --- | --- | --- | --- | --- | --- | --- |
| O=C(O)c1cc(CC2Cc3cc4c(cc3C2=O)CCC4)cc2c1CCC2 (centres undefined) | > 100 µM (inactive) | 61 µM (inactive) | > 100 µM (inactive) | > 100 µM (inactive) | 60.7 µM | 48.1 µM (inactive) | > 100 µM (inactive) | 40.9 µM (inactive) | 84.1 µM (inactive) | 90.2 µM (inactive) | > 100 µM (inactive) | 94.4 µM (inactive) | > 100 µM (inactive) | 46.6 µM (inactive) | > 100 µM (inactive) | > 100 µM (inactive) | > 100 µM (inactive) | 35.6 µM (inactive) | 43.2 µM (inactive) | – |
| C[C@@H](CN1CC(=O)NC(=O)C1)N1CC(=O)NC(=O)C1 [DEXRAZOXANE] | 37.2 µM (inactive) | 139 µM (inactive) | 90.6 µM (inactive) | 12.5 µM (inactive) | 122 µM | 320 µM (inactive) | 356 µM (inactive) | 301 µM (inactive) | 236 µM (inactive) | 67.8 µM (inactive) | 282 µM (inactive) | 224 µM (inactive) | 115 µM (inactive) | 180 µM (inactive) | 259 µM (inactive) | 458 µM (inactive) | 232 µM (inactive) | 318 µM (inactive) | 147 µM (inactive) | 174 µM (inactive) |
| CC(C)(C)c1cc(C(C)(C)C)c(SSc2c(C(C)(C)C)cc(C(C)(C)C)c(O)c2O)c(O)c1O | 6.75 µM (inactive) | 11.4 µM (inactive) | 11.5 µM (inactive) | 11.5 µM (inactive) | 6.19 µM | 10.5 µM (inactive) | 12 µM (inactive) | 6.43 µM (inactive) | 9.64 µM (inactive) | 3.92 µM (inactive) | 19.1 µM (inactive) | – | 3.55 µM (inactive) | 12.4 µM (inactive) | – | 16.3 µM (inactive) | 10.9 µM (inactive) | 14.8 µM (inactive) | 5.7 µM (inactive) | 11.7 µM (inactive) |
| Cc1ccc(N/N=C/C2=CC(C)(C)C(C#N)(C#N)C(O)=C2C#N)cc1 | 36.5 µM (inactive) | 45.5 µM (inactive) | 31.6 µM (inactive) | 26.9 µM (inactive) | – | > 100 µM (inactive) | 21 µM (inactive) | 21.3 µM (inactive) | 65.8 µM (inactive) | > 100 µM (inactive) | 56 µM (inactive) | 36.6 µM (inactive) | 96.8 µM (inactive) | 7.23 µM (inactive) | 69.3 µM (inactive) | 85.5 µM (inactive) | > 100 µM (inactive) | 45.5 µM (inactive) | 30.4 µM (inactive) | 40.7 µM (inactive) |
| CCN1CCCCC(=N\O)/C(=N/O)CCCC1 | > 100 µM (inactive) | > 100 µM (inactive) | > 100 µM (inactive) | > 100 µM (inactive) | > 100 µM | > 100 µM (inactive) | > 100 µM (inactive) | – | > 100 µM (inactive) | > 100 µM (inactive) | > 100 µM (inactive) | > 100 µM (inactive) | > 100 µM (inactive) | > 100 µM (inactive) | > 100 µM (inactive) | > 100 µM (inactive) | > 100 µM (inactive) | > 100 µM (inactive) | > 100 µM (inactive) | > 100 µM (inactive) |
| c1ccc(-c2sc(-c3ccccc3)c3c2C2CCC3C2)cc1 | 28.6 µM (inactive) | 36.1 µM (inactive) | 49.9 µM (inactive) | 22.9 µM (inactive) | 31.6 µM | 20 µM (inactive) | 47.1 µM (inactive) | 35.2 µM (inactive) | 28.8 µM (inactive) | 23.1 µM (inactive) | 29.8 µM (inactive) | 30.6 µM (inactive) | > 100 µM (inactive) | 25.5 µM (inactive) | 35.1 µM (inactive) | 49 µM (inactive) | 45.3 µM (inactive) | – | 33.8 µM (inactive) | 20 µM (inactive) |
| CCOC(=O)c1cc(C)nc2c1c(=O)n(-c1ccccc1)c(=O)n2CCCCN1CCN(c2ccccc2)CC1 | > 100 µM (inactive) | 58.1 µM (inactive) | 1.53 µM (inactive) | 60 µM (inactive) | 49.3 µM | > 100 µM (inactive) | > 100 µM (inactive) | 24.9 µM (inactive) | 61.1 µM (inactive) | 87.1 µM (inactive) | > 100 µM (inactive) | – | 34 µM (inactive) | 47.9 µM (inactive) | > 100 µM (inactive) | > 100 µM (inactive) | 49.9 µM (inactive) | > 100 µM (inactive) | 70.3 µM (inactive) | 38.6 µM (inactive) |
| O=C(O)c1c(CC(Cc2ccc3c(c2)CCCC3)C(=O)O)ccc2c1CCCC2 (centres undefined) | > 100 µM (inactive) | > 100 µM (inactive) | > 100 µM (inactive) | > 100 µM (inactive) | > 100 µM | > 100 µM (inactive) | > 100 µM (inactive) | > 100 µM (inactive) | > 100 µM (inactive) | > 100 µM (inactive) | > 100 µM (inactive) | > 100 µM (inactive) | – | > 100 µM (inactive) | > 100 µM (inactive) | > 100 µM (inactive) | > 100 µM (inactive) | > 100 µM (inactive) | > 100 µM (inactive) | > 100 µM (inactive) |
| CC1(C)/C(=N\NC(N)=O)C2CCC1C2 (centres undefined) | > 100 µM (inactive) | > 100 µM (inactive) | > 100 µM (inactive) | > 100 µM (inactive) | > 100 µM | > 100 µM (inactive) | > 100 µM (inactive) | > 100 µM (inactive) | > 100 µM (inactive) | > 100 µM (inactive) | > 100 µM (inactive) | > 100 µM (inactive) | > 100 µM (inactive) | > 100 µM (inactive) | > 100 µM (inactive) | > 100 µM (inactive) | – | > 100 µM (inactive) | > 100 µM (inactive) | > 100 µM (inactive) |
| C[C@]12CC[C@@H]3c4cc(I)c(O)cc4CC[C@H]3[C@@H]1CC[C@@H]2O | 6.32 µM (inactive) | 8.75 µM (inactive) | 8.63 µM (inactive) | 18.5 µM (inactive) | 2.48 µM | 2.32 µM (inactive) | 5.93 µM (inactive) | 3.52 µM (inactive) | 4.17 µM (inactive) | 3.72 µM (inactive) | 6.55 µM (inactive) | 3.43 µM (inactive) | 16.5 µM (inactive) | 10.7 µM (inactive) | 3.48 µM (inactive) | 7.96 µM (inactive) | – | 3.17 µM (inactive) | – | 3.18 µM (inactive) |
| COc1ccc(C(OCC2OC(n3cc(C)c(=O)[nH]c3=O)CC2n2cc(Cn3cc(Br)c(=O)[nH]c3=O)nn2)(c2ccccc2)c2ccccc2)cc1 (centres undefined) | > 100 µM (inactive) | > 100 µM (inactive) | > 100 µM (inactive) | > 100 µM (inactive) | > 100 µM | > 100 µM (inactive) | 38.5 µM (inactive) | – | > 100 µM (inactive) | > 100 µM (inactive) | > 100 µM (inactive) | > 100 µM (inactive) | > 100 µM (inactive) | 32.5 µM (inactive) | > 100 µM (inactive) | > 100 µM (inactive) | > 100 µM (inactive) | > 100 µM (inactive) | > 100 µM (inactive) | > 100 µM (inactive) |
| COc1ccc(N2C(=O)C(=O)N(c3ccccc3[N+](=O)[O-])C2=S)cc1 | 38.5 µM (inactive) | 28.4 µM (inactive) | 40 µM (inactive) | 19.4 µM (inactive) | 18.2 µM | 22.7 µM (inactive) | 34.8 µM (inactive) | 32.1 µM (inactive) | 16.6 µM (inactive) | 10.7 µM (inactive) | 23.5 µM (inactive) | – | 18.9 µM (inactive) | 40.5 µM (inactive) | 35.1 µM (inactive) | 33 µM (inactive) | 37.4 µM (inactive) | 27.1 µM (inactive) | 17.5 µM (inactive) | 17.6 µM (inactive) |
| O=C(O)/C=C/c1ccc(Oc2ccccc2C(=O)O)o1 | > 10 µM (inactive) | > 10 µM (inactive) | > 10 µM (inactive) | > 10 µM (inactive) | > 10 µM | > 10 µM (inactive) | > 10 µM (inactive) | > 10 µM (inactive) | > 10 µM (inactive) | > 10 µM (inactive) | > 10 µM (inactive) | – | > 10 µM (inactive) | > 10 µM (inactive) | > 10 µM (inactive) | > 10 µM (inactive) | > 10 µM (inactive) | > 10 µM (inactive) | > 10 µM (inactive) | > 10 µM (inactive) |
| O=[N+]([O-])/C(C(Cl)=C(Cl)Cl)=C(/Nc1ccccc1)SCc1ccccc1 | 17.8 µM (inactive) | 28.3 µM (inactive) | 31.9 µM (inactive) | 21.9 µM (inactive) | 14.4 µM | 44.1 µM (inactive) | 22.3 µM (inactive) | 24 µM (inactive) | 20.5 µM (inactive) | 23.3 µM (inactive) | 16.2 µM (inactive) | 15 µM (inactive) | 24.7 µM (inactive) | 24.5 µM (inactive) | 34.4 µM (inactive) | 20.4 µM (inactive) | 22.4 µM (inactive) | – | 20 µM (inactive) | 21.6 µM (inactive) |
| C[n+]1c2ccccc2n2c3ccccc3c(NCc3ccco3)c(C#N)c21 | 3.15 µM (inactive) | 1.46 µM (inactive) | 2.07 µM (inactive) | 1.67 µM (inactive) | 1.05 µM | 2.96 µM (inactive) | – | 1.49 µM (inactive) | 1.05 µM (active) | 0.678 µM (active) | 2.2 µM (inactive) | 2.7 µM (inactive) | 2.82 µM (inactive) | 2.23 µM (inactive) | 2.67 µM (inactive) | 1.99 µM (inactive) | 1.23 µM (inactive) | 2.02 µM (inactive) | 2.84 µM (inactive) | 2.78 µM (inactive) |
